Experimental data as given in publication PMC8011784, “Chronic peptide-based GIP receptor inhibition exhibits modest glucose metabolic changes in mice when administered either alone or combined with GLP-1 agonism” (PLoS ONE, 2021).

Tested on: DIO mice
Assay: Chronic GIPA-1 study: body weight and food intake in DIO mice
Assay type: in vivo, mouse
Conditions: 28 days, HFD; liraglutide 0.2 mg/kg/day SC, GIPA-1 ~4.5 mg/kg/day osmotic minipump; n = 10; vs vehicle (combination: vs liraglutide)
Description: 23-week-old male C57BL/6JRj mice (n = 40), fed a HFD (SSNIFF® diet #12492[60% fat, 20% protein, 20% carbohydrate]) for 14 weeks, were distributed into 4 test groups and received daily either vehicle, liraglutide (0.2 mg/kg/day), GIPA-1 (~4.5 mg/kg/day) or liraglutide + GIPA-1 for 4 weeks while still maintained on HFD. GIPA-1 was delivered using minipumps in order to achieve sufficient GIPR antagonism based on the properties of this peptide (Fig 2A). Liraglutide was dissolved in phosphate-buffered saline (PBS) plus 0.1% bovine serum albumin (BSA) (vehicle 1) and GIPA-1 in DMSO/propylene glycol (50/50 volume per volume) (vehicle 2). 100 μL minipumps (Alzet) were filled with GIPA-1 (30 mg/mL) or vehicle 2 and kept in 0.9% saline at 37°C overnight. […] Fasted (4 hrs) blood glucose and insulin levels were measured on study day -3, 14 and 27. […] Blood glucose was measured before their daily dosing and at 0, 15, 30 60, 120, 180 min after glucose administration. Plasma insulin was measured at 0 and 15 min. Whole body weight and food intake were measured throughout the study period. […]
Fig 2 Effects of chronic GIPR antagonism on body weight, food intake, and fasting blood glucose and insulin. […] Statistical analysis was calculated using two-way ANOVA with Tukey’s post-hoc test and one-way ANOVA for AUC with Dunnett’s post-hoc test. *: p< 0.05, **: p < 0.01, ***: p < 0.001, ****: p<0.0001 compared to vehicle.

For liraglutide, the body weight was “reduced both body weight and food intake” and the cumulative food intake was “reduced both body weight and food intake”.
